Here are results for 17 molecules from patent US20240400564A1 (Syndax Pharmaceuticals, Inc, priority 2021, published 2024).

One data set concerns the target hERG (Homo sapiens, UniProt Q12809). In words: Patch clamp assay (hERG tail currents, whole-cell). A general note: The patch-clamp technique gives a direct electrical read-out from membranes.
In data set [1] the test system is MLLr leukemia cell line MV4-11. In words: Cell proliferation assay MV4;11 (CellTiter-Glo, 72 hours). Conditions: Homo sapiens; MV4-11 cells, 72 hours, CellTiter-Glo; read-out: MV4; 11 IC50. The format is cell-based. An outline of the steps:
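Cells in IMDM/10% FBS, seeded from a 15,000 cells/ml suspension, were exposed for 72 h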
A general note: ATP-based viability assays read luminescence as a measure of living cells.

Structures are written as SMILES. pIC50: −log10 of the molar value.

Chain of hERG (Q12809 whole entry): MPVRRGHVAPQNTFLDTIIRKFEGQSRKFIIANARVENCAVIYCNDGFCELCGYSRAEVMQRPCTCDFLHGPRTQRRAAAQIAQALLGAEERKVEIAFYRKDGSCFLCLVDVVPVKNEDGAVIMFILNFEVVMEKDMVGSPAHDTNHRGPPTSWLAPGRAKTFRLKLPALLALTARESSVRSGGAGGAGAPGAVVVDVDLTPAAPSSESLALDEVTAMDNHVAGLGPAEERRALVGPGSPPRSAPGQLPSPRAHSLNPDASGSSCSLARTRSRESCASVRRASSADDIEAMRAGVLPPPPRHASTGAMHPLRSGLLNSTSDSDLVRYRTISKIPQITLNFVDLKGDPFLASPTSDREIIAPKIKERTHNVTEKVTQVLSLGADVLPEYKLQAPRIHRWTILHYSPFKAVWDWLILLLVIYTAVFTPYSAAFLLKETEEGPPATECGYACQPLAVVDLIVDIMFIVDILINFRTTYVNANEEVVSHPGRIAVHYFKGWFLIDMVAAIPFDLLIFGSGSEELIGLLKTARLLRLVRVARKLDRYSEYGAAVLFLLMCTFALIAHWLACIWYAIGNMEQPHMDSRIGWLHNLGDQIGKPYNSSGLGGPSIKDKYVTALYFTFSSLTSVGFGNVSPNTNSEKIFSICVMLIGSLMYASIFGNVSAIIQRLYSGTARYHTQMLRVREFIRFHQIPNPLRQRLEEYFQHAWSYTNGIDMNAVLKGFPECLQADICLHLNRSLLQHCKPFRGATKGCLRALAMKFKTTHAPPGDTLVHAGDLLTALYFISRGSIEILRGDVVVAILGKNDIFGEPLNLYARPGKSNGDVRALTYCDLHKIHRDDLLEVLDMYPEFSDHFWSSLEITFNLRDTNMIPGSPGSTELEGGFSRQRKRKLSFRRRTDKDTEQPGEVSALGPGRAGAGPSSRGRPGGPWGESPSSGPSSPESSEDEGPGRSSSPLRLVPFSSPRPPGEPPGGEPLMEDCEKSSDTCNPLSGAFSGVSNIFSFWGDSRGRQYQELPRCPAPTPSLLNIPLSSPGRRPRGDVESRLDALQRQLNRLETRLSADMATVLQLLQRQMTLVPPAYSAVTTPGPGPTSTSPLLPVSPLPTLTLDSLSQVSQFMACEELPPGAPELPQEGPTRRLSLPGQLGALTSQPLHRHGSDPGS
Description for hERG: The 35 mm culture dishes upon which cells were seeded at a density allowing single cells to be recorded were placed on the dish holder of the microscope and continuously perfused (at approximately 1 mL/min) with the bath solution described in section 4.6. All solutions applied to cells including the pipette solution were maintained at room temperature (19° C. to 30° C.). After formation of a Gigaohm seal between the patch electrodes and individual hERG stably transfected HEK 293 cells (pipette resistance range: 2.0 MS to 7.0 MS; seal resistance range: >1GΩ) the cell membrane across the pipette tip was ruptured to assure electrical access to the cell interior (whole-cell patch-configuration). In case the quality of the seal was poor, the process of seal formation was repeated with a different cell and a new pipette. As soon as a stable seal could be established, hERG outward tail currents were measured upon depolarization of the cell membrane to +20 mV for 2 s (activation of channels) from a holding potential of −80 mV and upon subsequent repolarization to −40 mV for 3 s. This voltage protocol (as shown below) was run at least 10 times at intervals of 10 s. If current density was judged to be too low for measurement, another cell was recorded.
During wash-in of the test item the voltage protocol indicated above was run continuously again at 10 s intervals until the steady-state level of block was reached.
The IC50 was determined by fitting the dose response curve with a 2-parameter logistic function (amax=100%).

For the molecule `CC(C)N(C(=O)c1cc(F)ccc1Oc1cncnc1N1CC2(CCN(C[C@@H]3CC[C@@H](NS(=O)(=O)c4cnn(C5CC5)c4)CO3)CC2)C1)C(C)C` [Example 83, 2-((4-(7-(((2S,5R)-5-((1-Cyclopropyl-1H-pyrazole)-4-sulfonamido)tetrahydro-2H-pyran-2-yl)methyl)-2,7-diazaspiro[3.5]nonan-2-yl)pyrimidin-5-yl)oxy)-5-fluoro-N,N-diisopropylbenzamide], the “hERG % Remaining” value at hERG (10 μM compound) is “+++ (≥66%)”; at hERG (30 μM compound), “++ (233% and ≤66%)”. Further, in data set [1], the pIC50 is > 7.00.

In the case of `Cc1ncc(S(=O)(=O)N[C@@H]2CC[C@@H](CN3CCC4(CC3)CN(c3ncncc3Oc3ccc(F)cc3C(=O)N(C(C)C)C(C)C)C4)OC2)s1` [Example 84, 5-Fluoro-N,N-diisopropyl-2-((4-(7-(((2S,5R)-5-((2-methylthiazole)-5-sulfonamido)tetrahydro-2H-pyran-2-yl)methyl)-2,7-diazaspiro[3.5]nonan-2-yl)pyrimidin-5-yl)oxy)benzamide], the “hERG % Remaining” value at hERG (10 μM compound) was “++ (233% and ≤66%)”; on hERG (30 μM compound) it was “+ (<33%)”. In data set [1], the pIC50 was > 7.00.

Turning to `CC(C)N(C(=O)c1cc(F)ccc1Oc1cncnc1N1CC2(CCN(C[C@@H]3CC[C@@H](NS(=O)(=O)c4cnn(C(F)F)c4)CO3)CC2)C1)C(C)C` [Example 85, 2-((4-(7-(((2S,5R)-5-((1-(Difluoromethyl)-1H-pyrazole)-4-sulfonamido)tetrahydro-2H-pyran-2-yl)methyl)-2,7-diazaspiro[3.5]nonan-2-yl)pyrimidin-5-yl)oxy)-5-fluoro-N,N-diisopropylbenzamide], the “hERG % Remaining” value is “++ (233% and ≤66%)” at hERG (10 μM compound); “+ (<33%)” at hERG (30 μM compound). The pIC50 in data set [1] was > 7.00.

Turning to `CC(C)N(C(=O)c1cc(F)ccc1Oc1cncnc1N1CC2(CCN(C[C@@H]3CC[C@@H](NS(=O)(=O)c4cnn(C)c4)CO3)CC2)C1)C(C)C` [Example 86, 5-Fluoro-N,N-diisopropyl-2-((4-(7-(((2S,5R)-5-((1-methyl-1H-pyrazole)-4-sulfonamido)tetrahydro-2H-pyran-2-yl)methyl)-2,7-diazaspiro[3.5]nonan-2-2-yl)pyrimidin-5-yl)oxy)benzamide], the “hERG % Remaining” value on hERG (10 μM compound) and on hERG (30 μM compound) was “+++ (≥66%)” in each case. Moreover, the pIC50 in data set [1] is > 7.00.

For `CC(C)N(C(=O)c1cc(F)ccc1Oc1cncnc1N1CC2(CCN(C[C@@H]3CC[C@@H](NS(=O)(=O)c4ccn(C)n4)CO3)CC2)C1)C(C)C` [Example 87, 5-Fluoro-N,N-diisopropyl-2-((4-(7-(((2S,5R)-5-((1-methyl-1H-pyrazole)-3-sulfonamido)tetrahydro-2H-pyran-2-yl)methyl)-2,7-diazaspiro[3.5]nonan-2-yl)pyrimidin-5-yl)oxy)benzamide], the “hERG % Remaining” value at hERG (30 μM compound) is “+++ (≥66%)”. For the same molecule, in data set [1], the pIC50 is > 7.00.

In the case of `Cc1nc(S(=O)(=O)N[C@@H]2CC[C@@H](CN3CCC4(CC3)CN(c3ncncc3Oc3ccc(F)cc3C(=O)N(C(C)C)C(C)C)C4)OC2)co1` [Example 91, 5-Fluoro-N,N-diisopropyl-2-((4-(7-(((2S,5R)-5-((2-methyloxazole)-4-sulfonamido)tetrahydro-2H-pyran-2-yl)methyl)-2,7-diazaspiro[3.5]nonan-2-yl)pyrimidin-5-yl)oxy)benzamide], the “hERG % Remaining” value on hERG (30 μM compound) was “++ (233% and ≤66%)”. Further, the pIC50 in data set [1] was > 7.00.

Take `CC(C)N(CC(F)F)C(=O)c1cc(F)ccc1Oc1cncnc1N1CC2(CCN(C[C@@H]3CC[C@@H](NS(=O)(=O)c4cnn(C)c4)CO3)CC2)C1` [Example 100, N-(2,2-Difluoroethyl)-5-fluoro-N-isopropyl-2-((4-(7-(((2S,5R)-5-((1-methyl-1H-pyrazole)-4-sulfonamido)tetrahydro-2H-pyran-2-yl)methyl)-2,7-diazaspiro[3.5]nonan-2-yl)pyrimidin-5-yl)oxy)benzamide]: the “hERG % Remaining” value on hERG (10 μM compound) and on hERG (30 μM compound) was “+++ (≥66%)” in each case. Also, the pIC50 in data set [1] is > 7.00.

With `CC(C)N(CC(F)F)C(=O)c1cc(F)ccc1Oc1cncnc1N1CC2(CCN(C[C@@H]3CC[C@@H](NS(=O)(=O)c4ccn(C)n4)CO3)CC2)C1` [Example 103, N-(2,2-Difluoroethyl)-5-fluoro-N-isopropyl-2-((4-(7-(((2S,5R)-5-((1-methyl-1H-pyrazole)-3-sulfonamido)tetrahydro-2H-pyran-2-yl)methyl)-2,7-diazaspiro[3.5]nonan-2-yl)pyrimidin-5-yl)oxy)benzamide], the “hERG % Remaining” value at hERG (30 μM compound) is listed as “+++ (≥66%)”. The pIC50 in data set [1] was > 7.00.

For the molecule `Cc1c(S(=O)(=O)N[C@@H]2CC[C@@H](CN3CCC4(CC3)CN(c3ncncc3Oc3ccc(F)cc3C(=O)N(CC(F)F)C(C)C)C4)OC2)cnn1C` [Example 104, N-(2,2-Difluoroethyl)-2-((4-(7-(((2S,5R)-5-((1,5-dimethyl-1H-pyrazole)-4-sulfonamido)tetrahydro-2H-pyran-2-yl)methyl)-2,7-diazaspiro[3.5]nonan-2-yl)pyrimidin-5-yl)oxy)-5-fluoro-N-isopropylbenzamide], the “hERG % Remaining” value at hERG (30 μM compound) was “+++ (≥66%)”. For the same molecule, the pIC50 in data set [1] is > 7.00.

`Cc1nn(C)cc1S(=O)(=O)N[C@@H]1CC[C@@H](CN2CCC3(CC2)CN(c2ncncc2Oc2ccc(F)cc2C(=O)N(CC(F)F)C(C)C)C3)OC1` [Example 105, N-(2,2-Difluoroethyl)-2-((4-(7-(((2S,5R)-5-((1,3-dimethyl-1H-pyrazole)-4-sulfonamido)tetrahydro-2H-pyran-2-yl)methyl)-2,7-diazaspiro[3.5]nonan-2-yl)pyrimidin-5-yl)oxy)-5-fluoro-N-isopropylbenzamide]: at hERG (30 μM compound), the “hERG % Remaining” value was “+++ (≥66%)”. Further, the pIC50 in data set [1] was > 7.00.

For the molecule `CC(C)N(C(=O)c1cc(F)ccc1Oc1cncnc1N1CC2(CCN(C[C@@H]3CC[C@@H](NS(=O)(=O)c4cnn(C)c4)CO3)CC2)C1)C1CC(F)(F)C1` [Example 156, N-(3,3-Difluorocyclobutyl)-5-fluoro-N-isopropyl-2-((4-(7-(((2S,5R)-5-((1-methyl-1H-pyrazole)-4-sulfonamido)tetrahydro-2H-pyran-2-yl)methyl)-2,7-diazaspiro[3.5]nonan-2-yl)pyrimidin-5-yl)oxy)benzamide], on hERG (30 μM compound), the “hERG % Remaining” value is on record as “+++ (≥66%)”. Besides, in data set [1], the pIC50 is > 7.00.

In the case of `CCN(C(=O)c1cc(F)ccc1Oc1cncnc1N1CC2(CCN(C[C@@H]3CC[C@@H](NS(=O)(=O)N4CCC[C@H]4C)CO3)CC2)C1)C(C)C` [Example 200, N-Ethyl-5-fluoro-N-isopropyl-2-((4-(7-(((2S,5R)-5-(((R)-2-methylpyrrolidine)-1-sulfonamido)tetrahydro-2H-pyran-2-yl)methyl)-2,7-diazaspiro[3.5]nonan-2-yl)pyrimidin-5-yl)oxy)benzamide], the “hERG % Remaining” value on hERG (10 μM compound) was “++ (233% and ≤66%)”; at hERG (30 μM compound), “+ (<33%)”. Further, the pIC50 in data set [1] is > 7.00.

As for `CCN(C(=O)c1cc(F)ccc1Oc1cncnc1N1CC2(CCN(C[C@@H]3CC[C@@H](NS(=O)(=O)N4CCC[C@@H]4C)CO3)CC2)C1)C(C)C` [Example 201, N-Ethyl-5-fluoro-N-isopropyl-2-((4-(7-(((2S,5R)-5-(((S)-2-methylpyrrolidine)-1-sulfonamido)tetrahydro-2H-pyran-2-yl)methyl)-2,7-diazaspiro[3.5]nonan-2-yl)pyrimidin-5-yl)oxy)benzamide], the “hERG % Remaining” value at hERG (10 μM compound) and at hERG (30 μM compound) was “+ (<33%)” in each case. In addition, the pIC50 in data set [1] is > 7.00.

For `CC(C)N(C(=O)c1cc(F)ccc1Oc1cncnc1N1CC2(CCN(C[C@@H]3CC[C@@H](NS(=O)(=O)N4CCC[C@@H]4C)CO3)CC2)C1)C(C)C` [Example 202, 5-Fluoro-N,N-diisopropyl-2-((4-(7-(((2S,5R)-5-(((S)-2-methylpyrrolidine)-1-sulfonamido)tetrahydro-2H-pyran-2-yl)methyl)-2,7-diazaspiro[3.5]nonan-2-yl)pyrimidin-5-yl)oxy)benzamide], on hERG (30 μM compound), the “hERG % Remaining” value was “+ (<33%)”. The pIC50 in data set [1] is > 7.00.

With `CC(C)N(C(=O)c1cc(F)ccc1Oc1cncnc1N1CC2(CCN(C[C@@H]3CC[C@@H](NS(=O)(=O)N4CCC[C@H]4C)CO3)CC2)C1)C(C)C` [Example 203, 5-Fluoro-N,N-diisopropyl-2-((4-(7-(((2S,5R)-5-(((R)-2-methylpyrrolidine)-1-sulfonamido)tetrahydro-2H-pyran-2-yl)methyl)-2,7-diazaspiro[3.5]nonan-2-yl)pyrimidin-5-yl)oxy)benzamide], the “hERG % Remaining” value on hERG (30 μM compound) is reported as “+ (<33%)”. For the same molecule, the pIC50 in data set [1] is > 7.00.

Regarding `C[C@@H]1COC[C@@H](C)N1C(=O)c1cc(F)ccc1Oc1cncnc1N1CC2(CCN(C[C@@H]3CC[C@@H](NS(=O)(=O)N4CCC[C@H]4C)CO3)CC2)C1` [Example 208, (R)-N-((3R,6S)-6-((2-(5-(2-((3R,5R)-3,5-Dimethylmorpholine-4-carbonyl)-4-fluorophenoxy)pyrimidin-4-yl)-2,7-diazaspiro[3.5]nonan-7-yl)methyl)tetrahydro-2H-pyran-3-yl)-2-methylpyrrolidine-1-sulfonamide], on hERG (30 μM compound), the “hERG % Remaining” value is reported as “+++ (≥66%)”. In addition, the pIC50 in data set [1] is > 7.00.

For `CO[C@H]1CCN(S(=O)(=O)N[C@@H]2CC[C@@H](CN3CCC4(CC3)CN(c3ncncc3Oc3ccc(F)cc3C(=O)N(C(C)C)C(C)C)C4)OC2)C1` [Example 210, 5-Fluoro-N,N-diisopropyl-2-((4-(7-(((2S,5R)-5-(((S)-3-methoxypyrrolidine)-1-sulfonamido)tetrahydro-2H-pyran-2-yl)methyl)-2,7-diazaspiro[3.5]nonan-2-yl)pyrimidin-5-yl)oxy)benzamide], the “hERG % Remaining” value on hERG (30 μM compound) is listed as “+++ (≥66%)”. Also, the pIC50 in data set [1] is > 7.00.
